Data set [1] can be described thus: Microsome metabolic stability, cynomolgus monkey. Type of data set: in vitro ADME. The following applies: cynomolgus monkey liver microsomes, 1 μM compound, 0.5 mg/mL; read-out: MMS CLint(liver)-C. How it is done: (§1) To evaluate the Phase I metabolic stability of the test compound in animal and human liver microsomes.
(§2) 10 μL of the test compound working solution and 80 μL of microsome working solution (0.625 mg/mL liver microsome protein) were added to the reaction plate and NCF60 plate, respectively, while only microsome working solution was added to the Blank60 plate, then, the above incubation plates were placed in a 37° C. water bath for pre-incubation for approximately 10 minutes.
(§3) After the pre-incubation, 10 μL of a NADPH regeneration system working solution was added into each sample well of all the plates except the NCF60 plate and TO plate to start the reaction, and 10 μL of potassium phosphate buffer was added to each well of the NCF60 plate. The final reaction concentrations of the test sample or control sample were 1 μM, the concentration of the liver microsomes was 0.5 mg/mL.
(§4) After incubation for an appropriate time, 300 μL of a stop solution (acetonitrile solution containing 200 ng/mL tolbutamide) was added to each sample well to stop the reaction; stop solution and then NADPH regeneration system working solution were added to the TO plate in sequence.
(§5) All the sample plates were shaken and centrifuged at 3220 rpm for 20 min, and then 100 μL of supernatant was taken from each well and diluted with 300 μL of pure water for LC-MS/MS analysis. […]
Background: Liver microsomes are vesicles of endoplasmic reticulum, rich in cytochrome P450 enzymes.

The target of the next data set is CYP1A2 (Homo sapiens (Human), UniProt P05177). In words: CYP inhibition in human liver microsomes, CYP1A2. Type of data set: in vitro ADME. The settings on record: 0.05-50 μM. The procedure: (§6) Mixed probe substrate of CYP isozymes were used to evaluate the inhibition of compounds of the present disclosure to human liver microsomal cytochrome P450 isoenzymes (CYP1A2, CYP2C9, CYP2C19, CYP2D6, and CYP3A4).
Chain of CYP1A2 (P05177 whole entry): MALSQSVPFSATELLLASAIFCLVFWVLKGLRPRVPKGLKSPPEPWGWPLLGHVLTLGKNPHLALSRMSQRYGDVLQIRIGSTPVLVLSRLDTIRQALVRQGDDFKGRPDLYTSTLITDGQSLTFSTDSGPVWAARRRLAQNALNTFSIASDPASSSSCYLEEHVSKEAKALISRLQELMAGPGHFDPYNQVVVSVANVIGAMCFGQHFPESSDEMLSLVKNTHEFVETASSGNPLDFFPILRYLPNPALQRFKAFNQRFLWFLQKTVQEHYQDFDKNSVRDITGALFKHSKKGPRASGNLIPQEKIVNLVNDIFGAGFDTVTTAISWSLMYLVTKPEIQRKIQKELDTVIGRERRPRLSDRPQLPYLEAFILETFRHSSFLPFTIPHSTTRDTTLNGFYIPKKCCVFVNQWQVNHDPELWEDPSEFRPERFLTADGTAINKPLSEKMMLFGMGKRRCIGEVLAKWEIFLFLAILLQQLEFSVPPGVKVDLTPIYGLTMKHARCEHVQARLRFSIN
(§7) The testing compound was dissolved in DMSO to prepare a 10 mM stock solution. 178 μL of the mixture solution of human liver microsomes and substrate was added into non-inhibitor control (NIC) wells and test compound sample wells of the reaction plate, and the reaction plate was placed on ice. 2 μL of blank solvent and test compound working solution was taken from the dilution plate, respectively, and then added into the reaction plate (final concentration: 0.05-50 μM). The reaction plate was preheated in a 37±0.2° C. water bath for 10 minutes. 20 μL of cofactor solution was added into the reaction plate using a liquid handling workstation to initiate the reaction.
(§8) After 10 minutes, 400 μL of stop solution was added to the reaction plate to stop the reaction, and the reaction plate was placed on ice for 5 minutes. […] The peak areas of the substrate and product were detected by liquid chromatography tandem mass spectrometry (LC/MS/MS). […]
(§9) A nonlinear regression analysis of mean percentage activity of the test compound against concentration was performed using SigmaPlot (V.11). The IC50 value was calculated using a three- or four-parameter inverse logarithmic equation. […]

Data set [2] in a line: Microsome metabolic stability, human. Type of data set: in vitro ADME. The following applies: human liver microsomes, 1 μM compound, 0.5 mg/mL; read-out: MMS CLint(liver)-H. How it is done:
as §1, §2, §3, §4, §5

Data set [3] concerns the target human wild-type RET kinase (Homo sapiens (Human), UniProt P07949). In words: 33P-labeled kinase activity assay, wild-type RET. The settings on record: 33P-ATP at Km concentration; read-out: RET(WT) IC50. It counts as biochemical. The procedure:
(§10) The inhibitory activity of the test compounds against human wild-type and V804M mutant RET kinase was evaluated by measuring IC50 values in a ^33P-labeled kinase activity assay (Reaction Biology Corp).
(§11) Buffer conditions: 20 mM hydroxyethyl-piperazine-ethanesulfonic acid (Hepes) (pH 7.5), 10 mM MgCl2, 1 mM ethylene glycol-bis(aminoethyl ether)-tetraacetic acid (EGTA), 0.02% polyoxyethylene lauryl ether (Brij35), 0.02 mg/mL BSA, 0.1 mM Na3VO4, 2 mM dithiothreitol (DTT), and 1% DMSO.
(§12) Compound handling: testing compounds were dissolved in 100% DMSO to specific concentration. Serial dilution can be conducted using Integra Viaflo Assist in DMSO.
(§13) Procedures: the substrate was dissolved in freshly prepared Reaction Buffer, the test kinase was added into the substrate solution and gently mixed. Compounds in DMSO were added into the above kinase reaction mixture by Acoustic technology (Echo550) and incubate for 20 minutes at room temperature. The concentrations of the compounds in the reaction solutions were 3 μM, 1 μM, 0.333 μM, 0.111 μM, 0.0370 μM, 0.0123 μM, 4.12 nM, 1.37 nM, 0.457 nM and 0.152 nM. […] The reaction was conducted for 120 minutes at room temperature, and radioactivity was detected by filter-binding method. Kinase activity data can be expressed as the percent remaining kinase activity in test samples compared to vehicle (DMSO only) reactions. […]

Data set [4] in a line: Pharmacokinetics study of mice. Type of data set: in vivo. The following applies: mouse, male CD-1 mice, plasma. An excerpt: The purpose of this experiment was to study the pharmacokinetics of the test compound in the plasma of male CD-1 mice after intravenous injection and oral administration.
The animals were randomly divided into two groups with 2 males in each group. The compounds were formulated into prescribed preparations. Intravenous formulations were formulated with 5% DMS 0/95% (6% hydroxypropyl-β-cyclodextrin) to give a clear solution, and oral preparations were formulated with 0.1% Tween80/0.5% HPMC aqueous solution to give a homogeneous suspension.
Whole blood samples were collected from the saphenous vein of the animals 5 minutes, 15 minutes, 30 minutes, 1 hour, 2 hours, 4 hours, 8 hours, 12 hours, and 24 hours after administration. The whole blood sample was added to the centrifuge tube containing anticoagulant, and centrifuged at 3200 g for 10 minutes at 4° C. The supernatant of plasma was taken, frozen quickly on dry ice, and then stored in a −70±10° C. refrigerator until LC-MS/MS analysis.
WinNonlin™ Version 6.3.0 (Pharsight, Mountain View, Calif.) pharmacokinetic software was used to process the plasma drug concentration data of the compounds with a non-compartmental model. The peak concentration (Cmax), peak time (Tmax) and quantifiable end time were obtained directly from the blood drug concentration-time profile.
The following pharmacokinetic parameters were calculated using the log-linear trapezoid method: Plasma clearance rate (CL), volume of distribution (Vd), elimination phase half-life (T1/2), average residence time of drug in the body from 0 to the end time point (MRT0-last), average residence time of the drug in the body from 0 to infinite time (MRT0-inf), area under the time-plasma concentration curve from 0 to the end time point (AUC0_last), area under the time-plasma concentration curve from 0 to infinite time (AUC0-inf) and bioavailability (F).

The next data set concerns the target CYP2C19 (Homo sapiens (Human), UniProt P33261). As to the kind of experiment: CYP inhibition in human liver microsomes, CYP2C19. It counts as in vitro ADME. The settings on record: 0.05-50 μM. The procedure:
as §6, §7, §8, §9

Data set [5] in a line: Microsome metabolic stability, rat. The following applies: rat liver microsomes, 1 μM compound, 0.5 mg/mL; read-out: MMS CLint(liver)-R. Type of data set: in vitro ADME. How it is done: as §1, §2, §3, §4, §5
A short description of data set [6]: Microsome metabolic stability, Beagle. The following applies: dog; Beagle liver microsomes, 1 μM compound, 0.5 mg/mL; read-out: MMS CLint(liver)-D. Type of data set: in vitro ADME. The procedure: as §1, §2, §3, §4, §5
A further data set deals with CYP3A4 (Homo sapiens (Human), UniProt P08684). In words: CYP inhibition in human liver microsomes, CYP3A4. Type of data set: in vitro ADME. The following applies: 0.05-50 μM. How it is done: as §6, §7, §8, §9
Chain of CYP3A4 (P08684 whole entry): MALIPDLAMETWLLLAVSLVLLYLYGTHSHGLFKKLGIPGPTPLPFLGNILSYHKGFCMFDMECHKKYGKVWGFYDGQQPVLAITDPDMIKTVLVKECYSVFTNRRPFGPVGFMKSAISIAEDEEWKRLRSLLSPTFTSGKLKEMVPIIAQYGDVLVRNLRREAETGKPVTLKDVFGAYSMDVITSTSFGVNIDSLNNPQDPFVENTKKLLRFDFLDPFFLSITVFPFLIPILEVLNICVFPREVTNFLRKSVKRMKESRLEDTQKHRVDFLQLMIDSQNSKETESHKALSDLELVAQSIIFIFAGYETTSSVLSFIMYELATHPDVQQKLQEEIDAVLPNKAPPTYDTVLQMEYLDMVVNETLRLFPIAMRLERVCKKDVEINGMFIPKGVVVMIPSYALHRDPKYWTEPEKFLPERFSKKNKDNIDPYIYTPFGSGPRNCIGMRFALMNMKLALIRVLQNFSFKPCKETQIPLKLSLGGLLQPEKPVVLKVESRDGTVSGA
Another data set addresses CYP2D6 (Homo sapiens (Human), UniProt P10635). In words: CYP inhibition in human liver microsomes, CYP2D6. It counts as in vitro ADME. The settings on record: 0.05-50 μM. The procedure: as §6, §7, §8, §9
Data set [7] is described as follows: Microsome metabolic stability, mice. It counts as in vitro ADME. The following applies: mouse; mice liver microsomes, 1 μM compound, 0.5 mg/mL; read-out: MMS CLint(liver)-M. The procedure: as §1, §2, §3, §4, §5
The target in another data set is CYP2C9 (Homo sapiens (Human), UniProt P11712). In words: CYP inhibition in human liver microsomes, CYP2C9. The settings on record: 0.05-50 μM. It counts as in vitro ADME. The procedure: as §6, §7, §8, §9
Chain of CYP2C9 (P11712 whole entry): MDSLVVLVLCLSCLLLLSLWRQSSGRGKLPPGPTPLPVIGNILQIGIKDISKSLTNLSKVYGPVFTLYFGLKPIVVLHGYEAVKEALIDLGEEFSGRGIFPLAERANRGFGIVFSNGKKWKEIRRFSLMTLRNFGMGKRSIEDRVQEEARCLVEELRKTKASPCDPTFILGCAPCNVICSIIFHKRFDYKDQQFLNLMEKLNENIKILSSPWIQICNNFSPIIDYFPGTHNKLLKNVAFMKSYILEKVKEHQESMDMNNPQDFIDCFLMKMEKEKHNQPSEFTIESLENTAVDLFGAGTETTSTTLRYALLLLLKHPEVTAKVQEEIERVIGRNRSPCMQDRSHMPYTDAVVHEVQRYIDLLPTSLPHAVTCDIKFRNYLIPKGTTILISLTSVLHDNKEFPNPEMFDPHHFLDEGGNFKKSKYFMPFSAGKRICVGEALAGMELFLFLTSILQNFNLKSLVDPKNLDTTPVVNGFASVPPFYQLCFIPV
For data set [8], the target named is human V804M mutant RET kinase (Homo sapiens (Human), UniProt P07949, V804M). As to the kind of experiment: 33P-labeled kinase activity assay, V804M mutant RET. It counts as biochemical. The following applies: 33P-ATP at Km concentration. The procedure:
as §10, §11, §12, §13

Where [9] appears, read: 0.5 mg/kg, 0.5 mpk intravenous injection.
The mark [10] stands for this setting: 2.5 mg/kg, 2.5 mpk oral administration.

A value given as a limit tells only on which side of the number the result lay.

One may read the IC50 as the concentration needed to halve the response being measured. One may read the AUC(0-inf) as the area under the concentration-time curve extrapolated to infinity. One may read the clearance as the rate of elimination divided by the concentration. For orientation: half-life means how long it takes for the measured level to halve. As a reminder, the Cmax is the highest concentration seen after dosing. One may read the Tmax as the time at which the peak concentration occurs.

Chain of human wild-type RET kinase (P07949 29-1114): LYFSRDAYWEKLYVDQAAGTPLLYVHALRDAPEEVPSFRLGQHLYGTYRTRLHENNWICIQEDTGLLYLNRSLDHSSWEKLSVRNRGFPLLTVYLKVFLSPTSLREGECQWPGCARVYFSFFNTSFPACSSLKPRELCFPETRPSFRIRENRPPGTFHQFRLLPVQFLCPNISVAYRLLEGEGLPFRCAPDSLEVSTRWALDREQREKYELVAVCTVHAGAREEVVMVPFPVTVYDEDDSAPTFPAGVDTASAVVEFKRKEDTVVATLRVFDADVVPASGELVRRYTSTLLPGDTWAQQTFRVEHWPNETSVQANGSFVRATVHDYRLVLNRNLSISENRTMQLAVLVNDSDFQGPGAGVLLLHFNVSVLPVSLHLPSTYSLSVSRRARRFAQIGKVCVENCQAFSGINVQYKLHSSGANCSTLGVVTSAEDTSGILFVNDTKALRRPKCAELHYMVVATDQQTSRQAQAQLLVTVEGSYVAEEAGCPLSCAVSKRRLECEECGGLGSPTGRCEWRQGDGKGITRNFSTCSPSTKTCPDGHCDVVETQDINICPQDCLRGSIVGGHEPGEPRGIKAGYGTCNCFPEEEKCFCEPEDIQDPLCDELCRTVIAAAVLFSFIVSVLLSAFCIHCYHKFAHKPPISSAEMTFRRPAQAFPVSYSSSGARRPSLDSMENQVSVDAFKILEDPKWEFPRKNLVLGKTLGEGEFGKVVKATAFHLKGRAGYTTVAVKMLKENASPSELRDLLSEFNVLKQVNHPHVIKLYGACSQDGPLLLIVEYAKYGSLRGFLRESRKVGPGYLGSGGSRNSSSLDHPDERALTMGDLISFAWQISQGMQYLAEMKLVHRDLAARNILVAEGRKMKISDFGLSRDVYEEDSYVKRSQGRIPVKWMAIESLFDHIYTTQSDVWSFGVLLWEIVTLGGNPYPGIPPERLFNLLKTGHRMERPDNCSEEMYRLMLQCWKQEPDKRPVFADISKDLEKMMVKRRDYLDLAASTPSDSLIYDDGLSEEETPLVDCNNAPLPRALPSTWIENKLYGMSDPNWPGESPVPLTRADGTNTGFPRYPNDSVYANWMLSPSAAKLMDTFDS
Chain of CYP2C19 (P33261 whole entry): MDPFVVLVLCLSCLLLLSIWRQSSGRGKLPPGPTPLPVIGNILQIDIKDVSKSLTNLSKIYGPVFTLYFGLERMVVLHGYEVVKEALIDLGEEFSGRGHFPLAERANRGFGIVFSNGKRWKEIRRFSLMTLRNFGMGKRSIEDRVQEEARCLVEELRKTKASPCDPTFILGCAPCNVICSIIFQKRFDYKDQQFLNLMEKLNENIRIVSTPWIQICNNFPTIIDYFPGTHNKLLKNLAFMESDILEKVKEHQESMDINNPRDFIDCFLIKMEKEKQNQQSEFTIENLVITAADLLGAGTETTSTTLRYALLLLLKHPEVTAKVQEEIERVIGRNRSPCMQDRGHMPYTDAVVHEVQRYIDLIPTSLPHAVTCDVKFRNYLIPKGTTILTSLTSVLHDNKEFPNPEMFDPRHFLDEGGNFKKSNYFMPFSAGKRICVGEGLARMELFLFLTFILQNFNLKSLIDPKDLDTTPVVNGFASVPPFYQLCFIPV
Chain of CYP2D6 (P10635 whole entry): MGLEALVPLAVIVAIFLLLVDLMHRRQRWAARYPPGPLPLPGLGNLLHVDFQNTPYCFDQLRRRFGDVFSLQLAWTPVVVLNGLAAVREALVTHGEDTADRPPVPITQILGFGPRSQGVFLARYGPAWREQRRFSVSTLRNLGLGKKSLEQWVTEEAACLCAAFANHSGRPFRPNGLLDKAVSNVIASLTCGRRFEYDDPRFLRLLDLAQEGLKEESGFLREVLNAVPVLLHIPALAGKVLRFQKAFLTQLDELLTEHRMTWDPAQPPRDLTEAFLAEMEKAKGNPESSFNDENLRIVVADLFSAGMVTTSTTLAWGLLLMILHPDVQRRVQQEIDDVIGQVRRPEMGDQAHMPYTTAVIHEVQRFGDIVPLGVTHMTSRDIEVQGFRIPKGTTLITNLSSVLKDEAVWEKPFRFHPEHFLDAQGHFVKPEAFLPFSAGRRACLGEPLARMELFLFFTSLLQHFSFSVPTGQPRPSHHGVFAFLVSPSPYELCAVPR
Chain of human V804M mutant RET kinase (P07949 29-1114 V804M): as the sequence (P07949 29-1114) above, with V776M counted along it

Consider `CCN1CCN(Cc2cc(F)c(NC(=O)Cc3ccc(-c4cnc5cc(OC)c(OC)cc5c4)nc3)cc2C(F)(F)F)CC1` [Compound 1], for which the CLint scaled at 1 μM in [1] is 127 mL/min/kg; in [2], 20.7 mL/min/kg; in data set [5], less than 17.3 mL/min/kg; in data set [6], 22.5 mL/min/kg; in [7], 88.5 mL/min/kg. In addition, the 50% inhibitory concentration (IC50) on CYP1A2 is greater than 50 µM; in [3], 0.0005 µM; against CYP2C19, 16.9 µM; at CYP3A4 it was greater than 50 µM; against CYP2D6 it was 18.8 µM; on CYP2C9 it was 12.5 µM. Also, in [8], half-maximal inhibition (IC50) required 0.0009 µM. Besides, the AUC(0-inf) in [4] (setting [9]) came to 5.19 µM·h; in data set [4] (setting [10]) it was 12.5 µM·h. This molecule also came in with a C0 in data set [4] (setting [9]) of 1300 nM. In data set [4] (setting [9]), this molecule came in with a clearance of 2.68 mL/min/kg. Besides, the half-life was 6.93 h in data set [4] (setting [9]) and 5.16 h in data set [4] (setting [10]). Also, the Vd in data set [4] (0.5 mg/kg, 0.5 mpk intravenous injection, read-out: Vdss) was found to be 1.52 L/kg. Moreover, the highest concentration (Cmax) in [4] (setting [10]) came to 958 nM. Further, the Tmax in data set [4] (setting [10]) came to 8 h.

Source of the values: patent publication US20230312504A1, “QUINOLINE COMPOUNDS” (Guangzhou Baiyunshan Pharmaceutical Holdings Co., Ltd. …, priority 2020, published 2023).
